Reference: patent EP0429372A1, “2-Azolyl nicotinate derivatives as herbicides” (RHONE-POULENC AGROCHIMIE, priority 1989, dated 1991)

How the values were obtained:
Assay in all cases: Example B: post-emergence herbicidal application, pot test
Type in all cases: in vivo
Digitaria sanguinalis = conditions: 4000 g/ha, 576 h
Description: (§1) Dans des pots de 7 x 7 x 8 cm remplis de terre agricole légère, on sème un nombre de graines déterminé en fonction de l'espèce végétale et de la grosseur de la graine.
(§2) On recouvre ensuite les graines d'une couche de terre d'environ 3 mm d'épaisseur et on laisse germer la graine jusqu'à ce qu'elle donne naissance à une plantule au stade convenable. Le stade de traitement pour les graminées est le stade "deuxième feuille en formation ". Le stade de traitement pour les dicotylédones, est le stade "cotylédons étalés, première feuille vraie en développement".
(§3) Les pots sont alors traités par pulvérisation de bouillie en quantité correspondant à une dose volumique d'application de 500 l/ha et contenant la matière active à la concentration désirée.
(§4) La bouille a été préparée de la même manière qu'à l'exemple A.
(§5) Les pots traités sont ensuite placés dans des bacs destinés à recevoir l'eau d'arrosage, en subirrigation, et maintenus pendant 24 jours à température ambiante sous 70 % d'humidité relative.
(§6) Au bout de 24 jours, on mesure un pourcentage (D) de destruction du nombre de pieds dans le pot traité par rapport au nombre de plantes dans les pots non traités (témoin). On mesure, sur les plantes traitées restantes, le pourcentage de réduction de taille (RT) par rapport aux plantes témoin.
(§7) Le pourcentage du volume foliaire non détruit par le produit est donc donné par la formule : [formula]
(§8) Cette valeur A est transformée en notation de 0 à 5 selon l'échelle suivante :
(§9) Les résultats obtenus sont présentés après le tableau A pour des doses d'application de 4000 g/ha.

Echinochloa crusgalli = test system: Echinochloa crusgalli
Description: as §1, §2, §3, §4, §5, §6, §7, §8, §9

Ipomea purpurea = test system: Ipomea purpurea
Description: as §1, §2, §3, §4, §5, §6, §7, §8, §9

Lolium multiflorum = test system: Lolium multiflorum
Description: as §1, §2, §3, §4, §5, §6, §7, §8, §9

Sinapis alba = test system: Sinapis alba
Description: as §1, §2, §3, §4, §5, §6, §7, §8, §9

Solanum nigrum = conditions: 4000 g/ha, 576 h
Description: as §1, §2, §3, §4, §5, §6, §7, §8, §9

[1] = 4 kg/ha, rated after 24 days, score 0-5 from % leaf volume not destroyed

SMILES	ACTIVITE DE POST-LEVEE DIG (Digitaria sanguinalis)	ACTIVITE DE POST-LEVEE ECH (Echinochloa crusgalli; 4000 g/ha, 576 h)	ACTIVITE DE POST-LEVEE IPO (Ipomea purpurea; 4000 g/ha, 576 h)	ACTIVITE DE POST-LEVEE LOL (Lolium multiflorum; 4000 g/ha, 576 h)	ACTIVITE DE POST-LEVEE SIN (Sinapis alba; 4000 g/ha, 576 h)	ACTIVITE DE POST-LEVEE SOL (Solanum nigrum)	ACTIVITE DE POST-LEVEE ECH (Echinochloa crusgalli; [1])	ACTIVITE DE POST-LEVEE IPO (Ipomea purpurea; [1])	ACTIVITE DE POST-LEVEE LOL (Lolium multiflorum; [1])	ACTIVITE DE POST-LEVEE SIN (Sinapis alba; [1])
CN(C)S(=O)(=O)n1nc(-c2ccc(Cl)cc2Cl)nc1-c1ncccc1C(=O)O [compound 3]	0 (90 à 100)	0 (90 à 100)	2 (50 à 70)	0 (90 à 100)	2 (50 à 70)	3 (30 à 50)	–	–	–	–
CCN(CC)S(=O)(=O)n1nc(-c2ccccc2)nc1-c1ncccc1C(=O)O [compound 4]	3 (30 à 50)	3 (30 à 50)	2 (50 à 70)	–	2 (50 à 70)	1 (70 à 90)	–	–	–	–
CN(C)S(=O)(=O)n1nc(C(C)(C)C)nc1-c1ncccc1C(=O)O [compound 12]	0 (90 à 100)	0 (90 à 100)	3 (30 à 50)	0 (90 à 100)	4 (10 à 30)	4 (10 à 30)	–	–	–	–
O=C(O)c1cccnc1-c1nc(-c2ccccc2)nn1S(=O)(=O)N1CCCC1 [compound 15]	3 (30 à 50)	3 (30 à 50)	2 (50 à 70)	3 (30 à 50)	1 (70 à 90)	1 (70 à 90)	–	–	–	–
COC(=O)c1cccnc1-c1nc(-c2ccccc2)nn1S(=O)(=O)c1ccccc1Cl [compound 24]	0 (90 à 100)	0 (90 à 100)	3 (30 à 50)	0 (90 à 100)	3 (30 à 50)	3 (30 à 50)	–	–	–	–
O=C(O)c1cccnc1-c1n[nH]c(-c2ccccc2)n1 [compound 42, 3 - (3 - carboxy 2 - pyridyl) 5 - phényl 1,2,4 - triazole]	–	–	–	–	–	–	2 (50 à 70)	4 (10 à 30)	1 (70 à 90)	4 (10 à 30)
O=C(O)c1cccnc1-c1n[nH]c(-c2ccc(Cl)cc2Cl)n1 [compound 43]	3 (30 à 50)	4 (10 à 30)	4 (10 à 30)	3 (30 à 50)	5 (O à 10)	3 (30 à 50)	–	–	–	–
O=C(O)c1cccnc1-c1n[nH]c(-c2sc(Cl)c(Cl)c2Cl)n1 [compound 44]	1 (70 à 90)	2 (50 à 70)	3 (30 à 50)	0 (90 à 100)	4 (10 à 30)	1 (70 à 90)	–	–	–	–
O=C(O)c1cccnc1-c1n[nH]c(Cc2ccccc2)n1 [compound 45]	3 (30 à 50)	3 (30 à 50)	3 (30 à 50)	2 (50 à 70)	2 (50 à 70)	3 (30 à 50)	–	–	–	–
O=C(O)c1cccnc1-c1n[nH]c(-c2cccc(Cl)c2)n1 [compound 48]	3 (30 à 50)	3 (30 à 50)	3 (30 à 50)	2 (50 à 70)	2 (50 à 70)	1 (70 à 90)	–	–	–	–
O=C(O)c1cccnc1-c1n[nH]c(-c2cc(Cl)cc(Cl)c2)n1 [compound 50]	2 (50 à 70)	3 (30 à 50)	3 (30 à 50)	0 (90 à 100)	0 (90 à 100)	0 (90 à 100)	–	–	–	–
Cc1ccccc1-c1nc(-c2ncccc2C(=O)O)n[nH]1 [compound 54]	3 (30 à 50)	2 (50 à 70)	0 (90 à 100)	3 (30 à 50)	1 (70 à 90)	3 (30 à 50)	–	–	–	–
O=C(O)c1cccnc1-c1n[nH]c(C=Cc2ccccc2)n1 [compound 67]	2 (50 à 70)	0 (90 à 100)	3 (30 à 50)	0 (90 à 100)	2 (50 à 70)	2 (50 à 70)	–	–	–	–
O=C(O)c1cccnc1-c1n[nH]c(-c2cc(Cl)ccc2Cl)n1 [compound 73]	2 (50 à 70)	3 (30 à 50)	3 (30 à 50)	2 (50 à 70)	3 (30 à 50)	3 (30 à 50)	–	–	–	–
CN(C)S(=O)(=O)n1c(-c2ncccc2C(=O)O)nc2ccccc21 [compound 121]	0 (90 à 100)	3 (30 à 50)	4 (10 à 30)	–	5 (O à 10)	5 (O à 10)	–	–	–	–
